Assay results from patent US7527021B2, “Non-invasive drug self-administration system for animals” (University of Virginia Patent Foundation, priority 2003, dated 2009).

Assays:
mice = assay: Intranasal aerosol cocaine self-administration, nose-poke frequency (FIG. 4); settings: intra-nasal aerosol; inverted-U dose response, less self-administration at higher and lower concentrations; 4 h sessions
[1] = 20/mg/kg cocaine via IP injection; cited from earlier work
[2] = Cocaine levels in the brains of self-administering animals (ELISA); settings: self-administered aerosol
Procedure: Animals were allowed access to the self administration system of the present invention and the number of nosepokes was recorded using two different concentrations of cocaine (1.8 or 21 mg/kg/spray). Animals were sacrificed within 20 min (animals 3,4) or 1 hr (animals 1,2) of last nosepoke, and all nosepokes occurred within less than 1 hr.

Structure (SMILES): COC(=O)[C@H]1[C@@H](OC(=O)c2ccccc2)C[C@@H]2CC[C@H]1N2C [cocaine]
- cocaine concentration at which animals nose-poke most frequently (mice): ~0.9 mg/kg/infusion
- cocaine in the brain [1]: 0.96 mg/kg
- Cocaine conc in brain ([2]; animal 1, 6 pokes × 1.8 mg/kg/spray, sacrificed within 1 hr of last nosepoke): 0.08 (mg/kg)
- Cocaine conc in brain ([2]; animal 2, 4 pokes × 1.8 mg/kg/spray, sacrificed within 1 hr of last nosepoke): 0.28 mg/kg
- Cocaine conc in brain ([2]; animal 3, 1 poke × 21.0 mg/kg/spray, sacrificed within 20 min of last nosepoke): 1.03 mg/kg
- Cocaine conc in brain ([2]; animal 4, 2 pokes × 21.0 mg/kg/spray, sacrificed within 20 min of last nosepoke): 2.96 mg/kg
